Measurements taken from US7566712B2, “Biaryl piperazinyl-pyridine analogues” (Neurogen Corporation, priority 2003, dated 2009).

Biological target: T1, human capsaicin receptor (Homo sapiens, UniProt Q8NER1)
T1 construct: pBK-CMV expression construct encoding the full length human capsaicin receptor; expressed in transfected cells
Test: Calcium mobilization assay, determination of antagonist activity (Example 6)
Assay type: cell-based
Settings: Table II; IC50 determined as described in Example 6 (antagonist activity, calcium mobilization)
Outline: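 HEK293 clonal lines stably expressing full-length human capsaicin receptor, loaded with Fluo-3 AM in KRH buffer pH 7.4, 1–2 h at 37 °C. Compounds (1–5 μM final) preincubated 0.5–6 h at room temperature, then capsaicin at its EC50 added. FLIPR/Fluoroskan calcium signal; IC50 as 50% decrease of capsaicin response.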

T1 sequence (Q8NER1 whole entry): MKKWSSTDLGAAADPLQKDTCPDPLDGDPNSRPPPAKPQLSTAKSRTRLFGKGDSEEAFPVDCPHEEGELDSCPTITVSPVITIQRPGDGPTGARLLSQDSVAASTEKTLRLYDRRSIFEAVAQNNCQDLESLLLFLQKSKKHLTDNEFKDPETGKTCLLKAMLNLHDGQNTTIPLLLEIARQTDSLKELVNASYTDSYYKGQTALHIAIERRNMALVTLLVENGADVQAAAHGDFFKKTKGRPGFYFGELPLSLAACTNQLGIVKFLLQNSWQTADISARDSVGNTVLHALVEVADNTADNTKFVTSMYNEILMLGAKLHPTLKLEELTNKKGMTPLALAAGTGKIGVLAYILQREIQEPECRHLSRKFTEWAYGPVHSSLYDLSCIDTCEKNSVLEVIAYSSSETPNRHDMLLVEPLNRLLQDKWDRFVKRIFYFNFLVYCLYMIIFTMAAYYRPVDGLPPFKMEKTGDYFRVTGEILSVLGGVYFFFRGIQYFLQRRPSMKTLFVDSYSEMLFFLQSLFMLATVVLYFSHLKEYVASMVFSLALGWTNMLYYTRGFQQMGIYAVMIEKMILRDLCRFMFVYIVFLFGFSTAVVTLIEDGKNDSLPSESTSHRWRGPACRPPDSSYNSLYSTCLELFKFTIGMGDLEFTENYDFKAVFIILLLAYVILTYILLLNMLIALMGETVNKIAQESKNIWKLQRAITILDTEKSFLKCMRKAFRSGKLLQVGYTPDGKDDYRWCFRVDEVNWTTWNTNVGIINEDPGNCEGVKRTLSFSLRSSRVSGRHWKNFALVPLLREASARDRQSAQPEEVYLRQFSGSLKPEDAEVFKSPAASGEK

IC50: ≤ 1 µM
SMILES: Cc1cccnc1N1CCN(c2cc(-c3ccc(F)c(Cl)c3)nc(N(C)[C@@H](C)CO)n2)CC1 [Example 1016, (2S)-2-[{4-(3-chloro-4-fluorophenyl)-6-[4-(3-methylpyridin-2-yl)piperazin-1-yl]pyrimidin-2-yl}(methyl)amino]propan-1-ol]
